Measured values as given in patent US10738028B2, “Spiro three-membered ring, spiro five-membered ring peptide deformylase inhibitor and use thereof in antibacteria and anti-tumor” (priority 2016, dated 2020).

Assays:
Type in all cases: cell-based
[1] = system: HCT-116 colorectal cancer cell line; test: CCK-8 proliferation inhibition; conditions: Homo sapiens, HCT-116, 72 h, concentration of 30 μM; 72 hours; CCK-8; read-out: HCT116 inhibition rate/%
Method in brief: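 Cells seeded at 2000 cells/well, cultured overnight at 37 °C, 5% CO2, then exposed to compound (DMSO; control 1‰ DMSO) for 72 h in McCoy's 5A with 10% newborn bovine serum. Viability read with 1:10 diluted CCK-8.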

[2] = system: methicillin-sensitive Staphylococcus epidermidis (MSSE); test: MIC, two-fold agar dilution (CLSI), clinical isolates
Method in brief: (§1)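 Samples are serially diluted two-fold in agar following CLSI guidance. Plates are then inoculated with the tested strains. The lowest inhibiting concentration is recorded as MIC.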

[3] = system: Enterococcus faecalis (EFA); test: as above
Method in brief: as §1

[4] = system: Enterococcus faecium (EFM); test: as above
Method in brief: as §1

[5] = system: Escherichia coli (including ESBLs, non-ESBLs); test: as above
Method in brief: as §1

[6] = system: Streptococcus pneoumoniae (SPN); test: as above
Method in brief: as §1

[7] = system: methicillin-sensitive Staphylococcus aureus (MSSA); test: as above
Method in brief: as §1

[8] = system: methicillin-resistant Staphylococcus epidermidis (MRSE); test: as above
Method in brief: as §1

[9] = system: Moraxella catarrhalis (BCA); test: as above
Method in brief: as §1

[10] = system: methicillin-resistant Staphylococcus aureus (MRSA); test: as above
Method in brief: as §1

Question: `CCCC[C@H](CC(=O)NO)C(=O)N1CC2(CC2)C[C@H]1C(=O)Nc1ncco1` [Example 53, (S)-5-((R)-2-(2-(hydroxyamino)-2-oxoethyl)hexanoyl)-N-(oxazol-2-yl)-5-azaspiro[2.4]heptane-6-carboxamide] was tested. Which inhibition at 30 µM [1] did it give?
Answer: -18%

Question: And the Anti-bacterial activity (MIC), strain MSSE 15-3 ([2]; clinical isolate MSSE 15-3)?
Answer: > 32 µg/mL

Question: What about the Anti-bacterial activity (MIC), strain MSSE 15-4 ([2]; clinical isolate MSSE 15-4) of the same compound?
Answer: > 32 µg/mL

Question: What about the Anti-bacterial activity (MIC), strain MSSE 15-5 ([2]; clinical isolate MSSE 15-5) of the same compound?
Answer: > 32 µg/mL

Question: And the Anti-bacterial activity (MIC), strain MSSE 15-6 ([2]; clinical isolate MSSE 15-6)?
Answer: > 32 µg/mL

Question: And the Anti-bacterial activity (MIC), strain EFA 15-1 ([3]; clinical isolate EFA 15-1)?
Answer: > 32 µg/mL

Question: What about the Anti-bacterial activity (MIC), strain EFA 15-2 ([3]; clinical isolate EFA 15-2) of the same compound?
Answer: > 32 µg/mL

Question: What about the Anti-bacterial activity (MIC), strain EFA 15-3 ([3]; clinical isolate EFA 15-3) of the same compound?
Answer: > 32 µg/mL

Question: And the Anti-bacterial activity (MIC), strain EFA 15-4 ([3]; clinical isolate EFA 15-4)?
Answer: > 32 µg/mL

Question: What about the Anti-bacterial activity (MIC), strain EFA 15-5 ([3]; clinical isolate EFA 15-5) of the same compound?
Answer: > 32 µg/mL

Question: And the Anti-bacterial activity (MIC), strain EFA 15-6 ([3]; clinical isolate EFA 15-6)?
Answer: > 32 µg/mL

Question: What about the Anti-bacterial activity (MIC), strain EFA 15-9 ([3]; clinical isolate EFA 15-9) of the same compound?
Answer: > 32 µg/mL

Question: What about the Anti-bacterial activity (MIC), strain EFM 15-1 ([4]; clinical isolate EFM 15-1) of the same compound?
Answer: > 32 µg/mL

Question: And the Anti-bacterial activity (MIC), strain EFM 15-2 ([4]; clinical isolate EFM 15-2)?
Answer: > 32 µg/mL

Question: What about the Anti-bacterial activity (MIC), strain EFM 15-3 ([4]; clinical isolate EFM 15-3) of the same compound?
Answer: > 32 µg/mL

Question: And the Anti-bacterial activity (MIC), strain EFM 15-4 ([4]; clinical isolate EFM 15-4)?
Answer: > 32 µg/mL

Question: And the Anti-bacterial activity (MIC), strain EFM 15-5 ([4]; clinical isolate EFM 15-5)?
Answer: 32 µg/mL

Question: What about the Anti-bacterial activity (MIC), strain EFM 15-6 ([4]; clinical isolate EFM 15-6) of the same compound?
Answer: 32 µg/mL

Question: And the Anti-bacterial activity (MIC), strain ECO+ 15-1 ([5]; clinical isolate ECO+ 15-1)?
Answer: > 32 µg/mL

Question: And the Anti-bacterial activity (MIC), strain ECO+ 15-2 ([5]; clinical isolate ECO+ 15-2)?
Answer: > 32 µg/mL

Question: And the Anti-bacterial activity (MIC), strain ECO+ 15-3 ([5]; clinical isolate ECO+ 15-3)?
Answer: > 32 µg/mL

Question: And the Anti-bacterial activity (MIC), strain ECO+ 15-4 ([5]; clinical isolate ECO+ 15-4)?
Answer: > 32 µg/mL

Question: What about the Anti-bacterial activity (MIC), strain ECO− 15-1 ([5]; clinical isolate ECO− 15-1) of the same compound?
Answer: > 32 µg/mL

Question: And the Anti-bacterial activity (MIC), strain ECO− 15-2 ([5]; clinical isolate ECO− 15-2)?
Answer: > 32 µg/mL

Question: What about the Anti-bacterial activity (MIC), strain ECO− 15-3 ([5]; clinical isolate ECO− 15-3) of the same compound?
Answer: > 32 µg/mL

Question: And the Anti-bacterial activity (MIC), strain ECO− 15-4 ([5]; clinical isolate ECO− 15-4)?
Answer: > 32 µg/mL

Question: And the Anti-bacterial activity (MIC), strain SPN 16-2 ([6]; clinical isolate SPN 16-2)?
Answer: 32 µg/mL

Question: And the Anti-bacterial activity (MIC), strain SPN 16-4 ([6]; clinical isolate SPN 16-4)?
Answer: 32 µg/mL

Question: What about the Anti-bacterial activity (MIC), strain MSSA 15-3 ([7]; clinical isolate MSSA 15-3) of the same compound?
Answer: > 32 µg/mL

Question: And the Anti-bacterial activity (MIC), strain MSSA 15-4 ([7]; clinical isolate MSSA 15-4)?
Answer: > 32 µg/mL

Question: And the Anti-bacterial activity (MIC), strain MSSA 15-5 ([7]; clinical isolate MSSA 15-5)?
Answer: > 32 µg/mL

Question: And the Anti-bacterial activity (MIC), strain MSSA 15-6 ([7]; clinical isolate MSSA 15-6)?
Answer: > 32 µg/mL

Question: And the Anti-bacterial activity (MIC), strain MRSE 15-1 ([8]; clinical isolate MRSE 15-1)?
Answer: > 32 µg/mL

Question: What about the Anti-bacterial activity (MIC), strain MRSE 15-2 ([8]; clinical isolate MRSE 15-2) of the same compound?
Answer: > 32 µg/mL

Question: And the Anti-bacterial activity (MIC), strain MRSE 15-3 ([8]; clinical isolate MRSE 15-3)?
Answer: > 32 µg/mL

Question: And the Anti-bacterial activity (MIC), strain MRSE 15-7 ([8]; clinical isolate MRSE 15-7)?
Answer: > 32 µg/mL

Question: What about the Anti-bacterial activity (MIC), strain BCA 14-1 ([9]; clinical isolate BCA 14-1) of the same compound?
Answer: > 32 µg/mL

Question: And the Anti-bacterial activity (MIC), strain BCA 14-4 ([9]; clinical isolate BCA 14-4)?
Answer: > 32 µg/mL

Question: What about the Anti-bacterial activity (MIC), strain BCA 14-5 ([9]; clinical isolate BCA 14-5) of the same compound?
Answer: > 32 µg/mL

Question: What about the Anti-bacterial activity (MIC), strain BCA 14-6 ([9]; clinical isolate BCA 14-6) of the same compound?
Answer: > 32 µg/mL

Question: And the Anti-bacterial activity (MIC), strain BCA 14-7 ([9]; clinical isolate BCA 14-7)?
Answer: > 32 µg/mL

Question: And the Anti-bacterial activity (MIC), strain BCA 14-8 ([9]; clinical isolate BCA 14-8)?
Answer: > 32 µg/mL

Question: What about the Anti-bacterial activity (MIC), strain BCA 14-10 ([9]; clinical isolate BCA 14-10) of the same compound?
Answer: > 32 µg/mL

Question: What about the Anti-bacterial activity (MIC), strain MRSA 15-1 ([10]; clinical isolate MRSA 15-1) of the same compound?
Answer: 16 µg/mL

Question: And the Anti-bacterial activity (MIC), strain MRSA 15-2 ([10]; clinical isolate MRSA 15-2)?
Answer: > 32 µg/mL

Question: And the Anti-bacterial activity (MIC), strain MRSA 15-3 ([10]; clinical isolate MRSA 15-3)?
Answer: 16 µg/mL

Question: What about the Anti-bacterial activity (MIC), strain MRSA 15-4 ([10]; clinical isolate MRSA 15-4) of the same compound?
Answer: > 32 µg/mL
